Measurements: paper PMC9856672, “SGC-CAMKK2-1: A Chemical Probe for CAMKK2” (Cells, 2023)

Key:
PIM2 = PIM2 (Homo sapiens, UniProt Q9P1W9); experiment: PIM2 inhibition at Reaction Biology Corporation; format: biochemical; parameters: purchased Reaction Biology Corporation; conditions: n = 1, read-out: PIM2 Enzyme IC50
VEGFR2 = molecular target: T1, VEGFR2 (Homo sapiens, UniProt P35968); experiment: DiscoverX KINOMEscan binding assay at 1 μM, VEGFR2; conditions: VEGFR2 (KDR); Compound Concentration 1000 nM; read-out: Percent Control
T1 construct: purchased Eurofins DiscoverX KINOMEscan
Excerpt: (§1) Supplement cells-12-00287-s001.zip/File S2. KinomeScan data for the CAMKK2 probe and negative control.xlsx, sheet "SGC-CAMKK2-1" | column: Percent Control

BRSK1 = molecular target: T2, BRSK1 (Homo sapiens, UniProt Q8TDC3); experiment: KINOMEscan 1 μM, BRSK1; format: binding; conditions: 1000 nM; Entrez BRSK1; read-out: Percent Control
T2 construct: purchased Eurofins DiscoverX KINOMEscan
T2 sequence (Q8TDC3 whole entry): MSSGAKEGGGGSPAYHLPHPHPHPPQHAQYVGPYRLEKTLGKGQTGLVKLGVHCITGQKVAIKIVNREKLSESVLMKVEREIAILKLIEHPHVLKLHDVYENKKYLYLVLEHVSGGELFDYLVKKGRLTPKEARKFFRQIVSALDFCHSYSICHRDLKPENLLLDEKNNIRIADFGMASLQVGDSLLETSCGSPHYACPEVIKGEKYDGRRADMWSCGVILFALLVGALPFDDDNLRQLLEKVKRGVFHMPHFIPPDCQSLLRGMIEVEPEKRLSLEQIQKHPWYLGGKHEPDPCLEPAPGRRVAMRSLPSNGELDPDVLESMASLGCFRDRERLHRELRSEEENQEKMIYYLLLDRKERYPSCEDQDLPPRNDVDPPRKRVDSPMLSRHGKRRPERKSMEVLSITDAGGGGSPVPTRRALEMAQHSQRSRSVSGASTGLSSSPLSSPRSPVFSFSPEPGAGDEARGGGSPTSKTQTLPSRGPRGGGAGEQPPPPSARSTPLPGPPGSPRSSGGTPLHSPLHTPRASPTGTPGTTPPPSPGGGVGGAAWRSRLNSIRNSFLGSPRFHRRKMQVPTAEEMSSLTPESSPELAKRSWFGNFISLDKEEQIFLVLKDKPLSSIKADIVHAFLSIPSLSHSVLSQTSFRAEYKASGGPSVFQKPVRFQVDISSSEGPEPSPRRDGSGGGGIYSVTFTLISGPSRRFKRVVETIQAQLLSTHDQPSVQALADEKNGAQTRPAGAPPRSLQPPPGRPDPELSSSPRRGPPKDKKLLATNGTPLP
Excerpt: as §1

SGK = molecular target: T3, SGK (Homo sapiens, UniProt O00141); experiment: KINOMEscan 1 μM, SGK; format: binding; conditions: 1000 nM; Entrez SGK1; read-out: Percent Control
T3 construct: purchased Eurofins DiscoverX KINOMEscan
T3 sequence (O00141 whole entry): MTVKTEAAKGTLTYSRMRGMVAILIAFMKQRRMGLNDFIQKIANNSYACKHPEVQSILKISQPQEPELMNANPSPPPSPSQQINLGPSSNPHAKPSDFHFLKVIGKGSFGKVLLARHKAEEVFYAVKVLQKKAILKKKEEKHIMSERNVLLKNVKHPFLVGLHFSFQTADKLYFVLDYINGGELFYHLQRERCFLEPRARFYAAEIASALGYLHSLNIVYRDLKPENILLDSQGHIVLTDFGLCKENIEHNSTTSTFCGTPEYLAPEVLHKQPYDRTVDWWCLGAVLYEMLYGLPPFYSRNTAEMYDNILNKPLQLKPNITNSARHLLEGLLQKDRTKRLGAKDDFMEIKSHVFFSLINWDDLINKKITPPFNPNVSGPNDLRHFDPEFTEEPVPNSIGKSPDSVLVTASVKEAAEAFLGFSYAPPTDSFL
Excerpt: as §1

TRKB = molecular target: T4, TRKB (Homo sapiens, UniProt Q16620); experiment: DiscoverX KINOMEscan binding assay at 1 μM, TRKB; conditions: TRKB (NTRK2); Compound Concentration 1000 nM; read-out: Percent Control
T4 construct: purchased Eurofins DiscoverX KINOMEscan
Excerpt: as §1

PFPK5(P.falciparum) = molecular target: T5, PFPK5(P.falciparum) (Plasmodium falciparum, UniProt P61075); experiment: DiscoverX KINOMEscan binding assay at 1 μM, PFPK5(P.falciparum); conditions: PFPK5(P.falciparum) (MAL13P1.279); Compound Concentration 1000 nM; read-out: Percent Control
T5 construct: purchased Eurofins DiscoverX KINOMEscan
Excerpt: as §1

[1] = molecular target: T6, RSK1(Kin.Dom.1-N-terminal) (Homo sapiens, UniProt Q15418); experiment: DiscoverX KINOMEscan binding assay at 1 μM, RSK1(Kin.Dom.1-N-terminal); conditions: RSK1(Kin.Dom.1-N-terminal) (RPS6KA1); Compound Concentration 1000 nM; read-out: Percent Control
T6 construct: RSK1(Kin.Dom.1-N-terminal); purchased Eurofins DiscoverX KINOMEscan
Excerpt: as §1

PCTK3 = molecular target: T7, PCTK3 (Homo sapiens, UniProt Q07002); experiment: KINOMEscan 1 μM, PCTK3; format: binding; conditions: 1000 nM; Entrez CDK18; read-out: Percent Control
T7 construct: purchased Eurofins DiscoverX KINOMEscan
T7 sequence (Q07002 whole entry): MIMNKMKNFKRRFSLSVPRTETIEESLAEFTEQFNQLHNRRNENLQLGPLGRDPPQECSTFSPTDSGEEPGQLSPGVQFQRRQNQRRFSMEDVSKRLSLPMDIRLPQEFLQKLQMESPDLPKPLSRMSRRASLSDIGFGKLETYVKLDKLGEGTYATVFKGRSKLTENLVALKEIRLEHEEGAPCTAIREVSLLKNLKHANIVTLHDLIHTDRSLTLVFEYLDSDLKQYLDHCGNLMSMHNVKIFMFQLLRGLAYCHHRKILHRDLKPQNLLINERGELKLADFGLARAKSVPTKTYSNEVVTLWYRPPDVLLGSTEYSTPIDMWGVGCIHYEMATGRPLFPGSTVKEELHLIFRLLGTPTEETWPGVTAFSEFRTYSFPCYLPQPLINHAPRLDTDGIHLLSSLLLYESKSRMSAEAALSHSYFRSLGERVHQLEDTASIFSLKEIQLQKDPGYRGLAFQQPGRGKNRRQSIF
Excerpt: as §1

NLK = molecular target: T8, NLK (Homo sapiens, UniProt Q9UBE8); experiment: KINOMEscan 1 μM, NLK; format: binding; conditions: 1000 nM; Entrez NLK; read-out: Percent Control
T8 construct: purchased Eurofins DiscoverX KINOMEscan
Excerpt: as §1

PIK3CA(H1047Y) = molecular target: T9, PIK3CA(H1047Y) (Homo sapiens, UniProt P42336, H1047Y); experiment: DiscoverX KINOMEscan binding assay at 1 μM, PIK3CA(H1047Y); conditions: Compound Concentration 1000 nM, read-out: Percent Control
T9 construct: purchased Eurofins DiscoverX KINOMEscan
T9 sequence (P42336 whole entry H1047Y): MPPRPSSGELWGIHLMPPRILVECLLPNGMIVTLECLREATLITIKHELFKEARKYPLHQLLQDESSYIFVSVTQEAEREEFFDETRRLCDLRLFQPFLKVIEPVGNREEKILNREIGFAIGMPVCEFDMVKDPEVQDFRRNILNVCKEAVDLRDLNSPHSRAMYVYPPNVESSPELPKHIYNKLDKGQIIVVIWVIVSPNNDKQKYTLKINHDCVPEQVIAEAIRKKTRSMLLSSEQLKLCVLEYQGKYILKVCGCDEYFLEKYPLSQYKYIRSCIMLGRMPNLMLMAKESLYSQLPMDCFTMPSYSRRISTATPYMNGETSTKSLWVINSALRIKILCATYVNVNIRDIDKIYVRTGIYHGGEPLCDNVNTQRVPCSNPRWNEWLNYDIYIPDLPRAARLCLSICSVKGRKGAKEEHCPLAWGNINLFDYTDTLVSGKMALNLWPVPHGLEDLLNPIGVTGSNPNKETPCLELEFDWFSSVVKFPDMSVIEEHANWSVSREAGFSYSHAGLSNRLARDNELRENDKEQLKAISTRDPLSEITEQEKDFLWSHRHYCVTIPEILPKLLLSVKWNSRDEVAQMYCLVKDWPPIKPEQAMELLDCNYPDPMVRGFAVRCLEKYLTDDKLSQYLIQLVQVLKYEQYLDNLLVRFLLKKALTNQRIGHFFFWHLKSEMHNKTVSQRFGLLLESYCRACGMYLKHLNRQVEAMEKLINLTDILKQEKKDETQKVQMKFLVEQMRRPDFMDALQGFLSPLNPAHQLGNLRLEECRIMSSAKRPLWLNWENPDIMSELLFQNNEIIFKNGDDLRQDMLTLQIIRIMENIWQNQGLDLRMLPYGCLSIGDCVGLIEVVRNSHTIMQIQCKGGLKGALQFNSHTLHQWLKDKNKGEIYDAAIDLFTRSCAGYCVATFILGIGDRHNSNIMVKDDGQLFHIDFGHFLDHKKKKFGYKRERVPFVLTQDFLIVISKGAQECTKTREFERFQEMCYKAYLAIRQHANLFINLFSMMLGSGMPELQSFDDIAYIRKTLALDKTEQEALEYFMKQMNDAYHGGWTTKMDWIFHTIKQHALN
Excerpt: as §1

BMPR1A = molecular target: T10, BMPR1A (Homo sapiens, UniProt P36894); experiment: KINOMEscan 1 μM, BMPR1A; format: binding; conditions: 1000 nM; Entrez BMPR1A; read-out: Percent Control
T10 construct: purchased Eurofins DiscoverX KINOMEscan
T10 sequence (P36894 24-532): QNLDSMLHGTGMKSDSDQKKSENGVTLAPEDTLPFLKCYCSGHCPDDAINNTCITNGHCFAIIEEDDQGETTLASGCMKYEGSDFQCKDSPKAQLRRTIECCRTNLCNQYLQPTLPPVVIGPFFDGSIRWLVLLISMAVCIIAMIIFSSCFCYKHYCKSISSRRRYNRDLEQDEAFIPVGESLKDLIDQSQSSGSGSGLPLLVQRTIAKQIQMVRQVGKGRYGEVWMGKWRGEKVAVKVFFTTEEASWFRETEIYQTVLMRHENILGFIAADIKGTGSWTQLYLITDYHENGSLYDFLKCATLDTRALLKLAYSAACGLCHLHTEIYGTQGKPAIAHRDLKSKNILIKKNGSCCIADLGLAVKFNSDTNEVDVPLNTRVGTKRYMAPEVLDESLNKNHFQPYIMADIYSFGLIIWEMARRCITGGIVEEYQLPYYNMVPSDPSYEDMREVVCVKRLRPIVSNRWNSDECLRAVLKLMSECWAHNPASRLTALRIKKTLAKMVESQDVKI
Excerpt: as §1

TIE1 = molecular target: T11, TIE1 (Homo sapiens, UniProt P35590); experiment: KINOMEscan 1 μM, TIE1; format: binding; conditions: 1000 nM; Entrez TIE1; read-out: Percent Control
T11 construct: purchased Eurofins DiscoverX KINOMEscan
Excerpt: as §1

MLCK = molecular target: T12, MLCK (Homo sapiens, UniProt Q32MK0); experiment: KINOMEscan 1 μM, MLCK; format: binding; conditions: 1000 nM; Entrez MYLK3; read-out: Percent Control
T12 construct: purchased Eurofins DiscoverX KINOMEscan
Excerpt: as §1

DRAK2 = molecular target: T13, DRAK2 (Homo sapiens, UniProt O94768); experiment: KINOMEscan 1 μM, DRAK2; format: binding; conditions: 1000 nM; Entrez STK17B; read-out: Percent Control
T13 construct: purchased Eurofins DiscoverX KINOMEscan
Excerpt: as §1

PDGFRA = molecular target: T14, PDGFRA (Homo sapiens, UniProt P16234); experiment: DiscoverX KINOMEscan binding assay at 1 μM, PDGFRA; conditions: Compound Concentration 1000 nM, read-out: Percent Control
T14 construct: purchased Eurofins DiscoverX KINOMEscan
Excerpt: as §1

DRAK1 = molecular target: T15, DRAK1 (Homo sapiens, UniProt Q9UEE5); experiment: KINOMEscan at 1 μM, DRAK1; format: binding; conditions: 1000 nM, read-out: Percent Control
T15 construct: purchased Eurofins DiscoverX KINOMEscan
T15 sequence (Q9UEE5 whole entry): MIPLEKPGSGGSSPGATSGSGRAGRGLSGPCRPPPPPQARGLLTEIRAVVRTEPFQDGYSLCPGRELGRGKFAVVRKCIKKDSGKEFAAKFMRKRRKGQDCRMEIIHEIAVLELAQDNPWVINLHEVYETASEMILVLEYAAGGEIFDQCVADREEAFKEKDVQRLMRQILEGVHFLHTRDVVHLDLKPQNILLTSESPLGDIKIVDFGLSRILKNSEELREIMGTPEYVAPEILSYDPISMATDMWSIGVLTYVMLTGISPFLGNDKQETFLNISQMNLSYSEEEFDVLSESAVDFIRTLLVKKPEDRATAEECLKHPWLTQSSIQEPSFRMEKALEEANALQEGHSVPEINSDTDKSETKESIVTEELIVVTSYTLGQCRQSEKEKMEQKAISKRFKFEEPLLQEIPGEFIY
Excerpt: (§2) Supplement cells-12-00287-s001.zip/File S2. KinomeScan data for the CAMKK2 probe and negative control.xlsx, sheet "SGC-CAMKK2-1N" | column: Percent Control

FGFR4 = molecular target: T16, FGFR4 (Homo sapiens, UniProt P22455); experiment: KINOMEscan binding assay at 1 μM, FGFR4; conditions: Compound Concentration 1000 nM; read-out: Percent Control
T16 construct: purchased Eurofins DiscoverX KINOMEscan
T16 sequence (P22455 22-802): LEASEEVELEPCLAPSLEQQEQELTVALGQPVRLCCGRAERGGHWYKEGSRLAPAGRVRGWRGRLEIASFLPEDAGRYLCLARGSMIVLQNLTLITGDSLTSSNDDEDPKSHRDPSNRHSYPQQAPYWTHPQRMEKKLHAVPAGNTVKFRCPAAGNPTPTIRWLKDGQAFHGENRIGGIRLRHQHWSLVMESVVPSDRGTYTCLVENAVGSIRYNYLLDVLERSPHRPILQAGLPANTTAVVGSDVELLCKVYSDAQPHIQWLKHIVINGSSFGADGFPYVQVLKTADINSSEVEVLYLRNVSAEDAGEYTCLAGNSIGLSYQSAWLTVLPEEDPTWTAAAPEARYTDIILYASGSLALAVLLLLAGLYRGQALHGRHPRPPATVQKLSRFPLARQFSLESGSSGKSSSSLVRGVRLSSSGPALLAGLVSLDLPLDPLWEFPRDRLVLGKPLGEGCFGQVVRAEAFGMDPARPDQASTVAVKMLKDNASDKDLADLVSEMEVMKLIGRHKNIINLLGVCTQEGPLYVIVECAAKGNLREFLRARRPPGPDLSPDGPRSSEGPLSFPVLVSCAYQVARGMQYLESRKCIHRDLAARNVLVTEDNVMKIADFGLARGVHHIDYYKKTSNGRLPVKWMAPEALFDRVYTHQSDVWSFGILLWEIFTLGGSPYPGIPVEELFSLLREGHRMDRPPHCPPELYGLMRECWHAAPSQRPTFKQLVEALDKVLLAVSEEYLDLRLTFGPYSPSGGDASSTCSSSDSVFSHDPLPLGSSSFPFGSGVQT
Excerpt: as §2

CDKL2 = molecular target: T17, CDKL2 (Homo sapiens, UniProt Q92772); experiment: KINOMEscan at 1 μM, CDKL2; format: binding; conditions: 1000 nM, read-out: Percent Control
T17 construct: purchased Eurofins DiscoverX KINOMEscan
Excerpt: as §2

p38-delta = molecular target: T18, p38-delta (Homo sapiens, UniProt O15264); experiment: KINOMEscan at 1 μM, p38-delta; format: binding; conditions: 1000 nM, read-out: Percent Control
T18 construct: purchased Eurofins DiscoverX KINOMEscan
Excerpt: as §2

AURKC = molecular target: T19, AURKC (Homo sapiens, UniProt Q9UQB9); experiment: KINOMEscan at 1 μM, AURKC; format: binding; conditions: 1000 nM, read-out: Percent Control
T19 construct: purchased Eurofins DiscoverX KINOMEscan
Excerpt: as §2

ACVR1 = molecular target: T20, ACVR1 (Homo sapiens, UniProt Q04771); experiment: KINOMEscan at 1 μM, ACVR1; format: binding; conditions: 1000 nM, read-out: Percent Control
T20 construct: purchased Eurofins DiscoverX KINOMEscan
Excerpt: as §2

PAK6 = molecular target: T21, PAK6 (Homo sapiens, UniProt Q9NQU5); experiment: KINOMEscan at 1 μM, PAK6; format: binding; conditions: 1000 nM, read-out: Percent Control
T21 construct: purchased Eurofins DiscoverX KINOMEscan
Excerpt: as §2

CAMK1G = molecular target: T22, CAMK1G (Homo sapiens, UniProt Q96NX5); experiment: KINOMEscan at 1 μM, CAMK1G; format: binding; conditions: 1000 nM, read-out: Percent Control
T22 construct: purchased Eurofins DiscoverX KINOMEscan
Excerpt: as §2

FLT3(ITD) = experiment: KINOMEscan at 1 μM, FLT3(ITD); format: binding, human; conditions: 1000 nM
Excerpt: as §2

CDK3 = molecular target: T23, CDK3 (Homo sapiens, UniProt Q00526); experiment: KINOMEscan at 1 μM, CDK3; format: binding; conditions: 1000 nM, read-out: Percent Control
T23 construct: purchased Eurofins DiscoverX KINOMEscan
Excerpt: as §2

ERK3 = molecular target: T24, ERK3 (Homo sapiens, UniProt Q16659); experiment: KINOMEscan at 1 μM, ERK3; format: binding; conditions: 1000 nM, read-out: Percent Control
T24 construct: purchased Eurofins DiscoverX KINOMEscan
Excerpt: as §2

SGK3 = molecular target: T25, SGK3 (Homo sapiens, UniProt Q96BR1); experiment: KINOMEscan binding assay at 1 μM, SGK3; conditions: Compound Concentration 1000 nM; read-out: Percent Control
T25 construct: purchased Eurofins DiscoverX KINOMEscan
Excerpt: as §2

PIK3CA = molecular target: T26, PIK3CA (Homo sapiens, UniProt P42336); experiment: KINOMEscan at 1 μM, PIK3CA; format: binding; conditions: 1000 nM, read-out: Percent Control
T26 construct: purchased Eurofins DiscoverX KINOMEscan
T26 sequence (P42336 whole entry): as the sequence (P42336 whole entry H1047Y) above, with Y1047H counted along it
Excerpt: as §2

TNIK = molecular target: T27, TNIK (Homo sapiens, UniProt Q9UKE5); experiment: KINOMEscan at 1 μM, TNIK; format: binding; conditions: 1000 nM, read-out: Percent Control
T27 construct: purchased Eurofins DiscoverX KINOMEscan
Excerpt: as §2

TAOK2 = molecular target: T28, TAOK2 (Homo sapiens, UniProt Q9UL54); experiment: KINOMEscan at 1 μM, TAOK2; format: binding; conditions: 1000 nM, read-out: Percent Control
T28 construct: purchased Eurofins DiscoverX KINOMEscan
Excerpt: as §2

MINK = molecular target: T29, MINK (Homo sapiens, UniProt Q8N4C8); experiment: KINOMEscan at 1 μM, MINK; format: binding; conditions: 1000 nM, read-out: Percent Control
T29 construct: purchased Eurofins DiscoverX KINOMEscan
Excerpt: as §2

YANK1 = molecular target: T30, YANK1 (Homo sapiens, UniProt Q8WU08); experiment: KINOMEscan at 1 μM, YANK1; format: binding; conditions: 1000 nM, read-out: Percent Control
T30 construct: purchased Eurofins DiscoverX KINOMEscan
Excerpt: as §2

PIM2, sequence (Q9P1W9 whole entry): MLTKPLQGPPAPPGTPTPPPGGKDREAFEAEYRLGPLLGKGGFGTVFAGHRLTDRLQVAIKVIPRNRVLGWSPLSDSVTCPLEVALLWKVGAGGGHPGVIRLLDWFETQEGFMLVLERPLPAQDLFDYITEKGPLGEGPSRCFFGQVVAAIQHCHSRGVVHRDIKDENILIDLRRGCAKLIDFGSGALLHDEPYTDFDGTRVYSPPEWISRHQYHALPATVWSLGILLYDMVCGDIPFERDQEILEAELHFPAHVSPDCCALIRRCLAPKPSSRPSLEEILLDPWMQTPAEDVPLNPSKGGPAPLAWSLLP

## O=C(O)c1ccc(-c2coc3ncc(-c4ccccc4)cc23)cc1Cl [Compound 7]
PIM2
  IC50: 1.9 µM

## Cc1cccc(-c2cnc3occ(-c4ccc(C(=O)O)c(C5CCCC5)c4)c3c2)c1 [SGC-CAMKK2-1 (YL-36)]
VEGFR2
  remaining binding at 1 µM: 100%
BRSK1
  remaining binding at 1 µM: 82%
SGK
  remaining binding at 1 µM: 86%
TRKB
  remaining binding at 1 µM: 100%
PFPK5(P.falciparum)
  remaining binding at 1 µM: 100%
[1]
  remaining binding at 1 µM: 100%
PCTK3
  remaining binding at 1 µM: 99%
NLK
  remaining binding at 1 µM: 81%
PIK3CA(H1047Y)
  remaining binding at 1 µM: 100%
BMPR1A
  remaining binding at 1 µM: 100%
TIE1
  remaining binding at 1 µM: 77%
MLCK
  remaining binding at 1 µM: 86%
DRAK2
  remaining binding at 1 µM: 100%
PDGFRA
  remaining binding at 1 µM: 100%

## O=C(O)c1ccc(-c2coc3ncc(-c4ccccc4)cc23)cc1Cl [SGC-CAMKK2-1N (UNC-YL-83)]
DRAK1
  remaining binding at 1 µM: 93%
FGFR4
  remaining binding at 1 µM: 100%
CDKL2
  remaining binding at 1 µM: 74%
p38-delta
  remaining binding at 1 µM: 98%
AURKC
  remaining binding at 1 µM: 90%
ACVR1
  remaining binding at 1 µM: 85%
PAK6
  remaining binding at 1 µM: 63%
CAMK1G
  remaining binding at 1 µM: 86%
FLT3(ITD)
  Percent Control: 81
CDK3
  remaining binding at 1 µM: 100%
ERK3
  remaining binding at 1 µM: 92%
SGK3
  remaining binding at 1 µM: 100%
PIK3CA
  remaining binding at 1 µM: 74%
TNIK
  remaining binding at 1 µM: 73%
TAOK2
  remaining binding at 1 µM: 78%
MINK
  remaining binding at 1 µM: 95%
YANK1
  remaining binding at 1 µM: 84%
